Converted amounts (≈) assume the structure as drawn.
Settings: buffer; pH 7.4; 200.0 µM

| Structure (SMILES) | solubility kinetic [µg/mL] |
| --- | --- |
| O=C(c1cc2ccccc2o1)N1CCOCC1 | > 34.7 |
| Cc1cccc(C(=O)NCC(=O)OCC(=O)c2ccc(Br)s2)c1 | > 59.4 |
| O=C(C1CC1)N(Cc1nc2ccccc2c(=O)[nH]1)Cc1cccs1 | > 50.9 |
| N#C/C(=C(O)\C=C\c1ccccc1)c1nc2ccccc2[nH]1 | < 0.2 |
| O=C1CCCC/C1=C\Nc1ccc(S(=O)(=O)Nc2cnc3ccccc3n2)cc1 | 15.9 (≈ 38.9 µM) |
| Cc1ccc(Cl)cc1NS(=O)(=O)N1CCOCC1 | > 43.6 |
| CS(=O)(=O)N(CC(=O)N1CCCCC1)Cc1ccccc1 | > 46.6 |
| C=CCN(c1nc(C)cc(OC)n1)S(=O)(=O)c1ccccc1 | 19.4 (≈ 60.7 µM) |
| O=C(CCC(=O)c1cccs1)NCc1ccccc1Cl | 45.4 (≈ 147 µM) |
| Cc1ccccc1C(=O)Nc1ccc(N2CCCC2)cc1.Cl | 7.8 |
| O=S(=O)(c1ccc(Cl)c2ccccc12)N1CCCC1 | < 0.6 |
| NS(=O)(=O)c1cccc(NC(=O)CSc2nnc3n2CCCCC3)c1 | > 57.2 |
| O=C1CCCN1CCC1CCCCN1Cc1nc(-c2cnccn2)no1 (stereo unspecified) | > 53.5 |
| O=C(c1cc(F)ccc1F)C1CCCN(Cc2cccc(Cl)c2)C1 (stereo unspecified) | 2.1 (≈ 6 µM) |
| CCOc1ccc(/C=C2\SC(=S)N(C(C(=O)O)c3ccccc3)C2=O)cc1OC (stereo unspecified) | > 64.4 |
| O=C(NC1CCSc2ccccc21)c1ccc(F)cc1 (stereo unspecified) | 4.9 (≈ 17.1 µM) |
| Nc1ccccc1C(=O)NCc1ccco1 | > 32.4 |
| O=C(Nc1cccc(C(F)(F)F)c1)c1c(O)c2ccccc2[nH]c1=O | < 0.4 |
| O=CN1CCN(C(=O)c2ccc3c(c2)OCO3)CC1 | > 39.3 |
| Cc1cccc(NC(=O)/C(C#N)=C/c2ccc(Cl)cc2)n1 | 0.6 (≈ 2.02 µM) |
| O=C(Nc1nccs1)c1ccc2c(c1)OCO2 | 3 (≈ 12.1 µM) |

| Structure (SMILES) | solubility kinetic [µg/mL] |
| --- | --- |
| Cc1ccc(OCCCn2ccnc2)c(Br)c1 | 30.8 (≈ 104 µM) |
| O=C(NCCc1ccccc1)c1coc(=O)c(Br)c1 | 9.8 (≈ 30.4 µM) |
| NC(=O)COc1ccccc1C(=O)NC12CC3CC(CC(C3)C1)C2 | 14.2 (≈ 43.2 µM) |
| CC1CN=C(NC(=O)c2cccc([N+](=O)[O-])c2)S1.Cl (stereo unspecified) | 12.5 |
| Cc1noc(NC(=O)c2cccc(Cl)c2Cl)c1C#N | 43.1 (≈ 146 µM) |
| Cc1[nH]c2ccccc2c1-c1csc(N)n1 | 28.1 (≈ 123 µM) |
| Cc1ccc(NC(=O)C2CCCN(c3nccc(C)n3)C2)c(C)c1 (stereo unspecified) | 2.2 (≈ 6.78 µM) |
| O=c1[nH]c2ccccc2nc1C(F)(F)F | > 32.1 |
| Cc1ccc(NS(=O)(=O)c2ccc3[nH]c(=O)c(=O)[nH]c3c2)cc1Cl | 11.5 (≈ 31.4 µM) |
| Cc1cccc(NC(=S)NCc2ccc(F)cc2)c1C | 35.2 (≈ 122 µM) |
| NC(=O)COC(=O)/C=C/c1ccccc1[N+](=O)[O-] | 33.1 (≈ 132 µM) |
| Fc1ccc(OCCCn2ccnc2)cc1 | 23.3 (≈ 106 µM) |
| O=C(NCCN1CCN(C(=O)c2cccc(OC(F)F)c2)CC1)c1cccc(OC(F)F)c1 | > 70.4 |
| CC(=O)Nc1ccc(-c2csc(Nc3ncccn3)n2)cc1 | 0.4 (≈ 1.28 µM) |
| Cc1cccc(C)c1NC(=O)C1CC2CCC1C2 (stereo unspecified) | 12.6 (≈ 51.8 µM) |
| O=C(O)c1sccc1NC(=O)c1c(Cl)cccc1Cl | > 47.4 |
| CN(C(=O)/C=C/c1ccccc1)C1CCCCC1 | 35.1 (≈ 144 µM) |
| O=C(O)c1nccnc1C(=O)Nc1ccc(Cl)cn1 | 41.5 (≈ 149 µM) |
| NS(=O)(=O)c1ccc(NC(=S)NC(=O)c2cccs2)cc1 | 6.2 (≈ 18.2 µM) |
| Cc1ccc(C(=O)CCC(=O)N2CCC(C(N)=O)CC2)cc1 | 43.5 (≈ 144 µM) |
| CCOC(=O)c1sc(NC(=O)C2CC(=O)N(c3ccc(C)cc3)C2)nc1C (stereo unspecified) | 13 (≈ 33.6 µM) |

| Structure (SMILES) | solubility kinetic [µg/mL] |
| --- | --- |
| CN(C)S(=O)(=O)c1cccc(NC(=O)COC(=O)c2cccnc2Cl)c1 | > 59.7 |
| COc1ccc(-c2csc3nc[nH]c(=O)c23)cc1OC | 39.4 (≈ 137 µM) |
| O=C(CCCC(=O)N1CCCC1)N1CCCC1 | 26.3 (≈ 110 µM) |
| Cc1cc(=O)oc2cc(OCC(=O)NC3CCCCC3)ccc12 | 7.5 (≈ 23.8 µM) |
| O=C(NCc1ccccn1)C(=O)Nc1ccccc1 | > 38.3 |
| N#CCc1ccc(OC(=O)c2cccnc2)cc1 | > 35.7 |
| CC(C)(C)C(=O)C1=C(O)C(=O)N(Cc2ccccc2)C1c1ccccc1F (stereo unspecified) | > 55.1 |
| CC(NC(=O)CN(C)Cc1cccc(F)c1)c1ccccc1 (stereo unspecified) | > 45.1 |
| CN(CC(=O)Nc1ccc(F)cc1Cl)Cc1cccs1 | 14.6 (≈ 46.7 µM) |
| O=C(COc1ccccc1C(=O)O)Nc1cccc2ccccc12 | > 48.2 |
| Cc1cc(NC(=O)CSc2nc3ccccc3n2CC(C)C)no1 | 7.3 (≈ 21.2 µM) |
| CCc1ccc(NS(=O)(=O)c2ccc3oc(=O)ccc3c2)cc1 | 41.2 (≈ 125 µM) |
| CC(=O)NC(=S)Nc1ccc([N+](=O)[O-])cc1C | 3.5 (≈ 13.8 µM) |
| CCOC(=O)COc1ccc2c(c1)c(C(C)=O)c(C)n2-c1ccccc1 | < 0.8 |
| Cn1c(C(=O)N[C@@H](C(=O)O)c2ccccc2)cc2cc(F)ccc21 | 45.4 (≈ 139 µM) |
| N#Cc1c(F)cccc1N1CCN(Cc2ccc3c(c2)OCO3)CC1 | 14.6 (≈ 43 µM) |
| CC(C)C(CCNC1CCN(C)CC1)c1ccc(Cl)cc1 (stereo unspecified) | 33.5 (≈ 108 µM) |
| CCc1nc(SCC(=O)O)c(C#N)c2c1CCCC2 | > 41.5 |
| C/C(=N/NC(=O)CNC(=O)c1cccs1)c1ccco1 | > 43.7 |

— PubChem BioAssay AID1996
